Experimental data: patent publication US9388389B2, “JFH-1 based HCV cell culture systems for NS5A of genotypes 1-7” (Hvidovre Hospital, priority 2009, dated 2016)

Columns and labels:
[1] = tested on: Huh7.5 cells; experiment: Spread of infection in culture, anti-Core immunostaining; format: cell-based; conditions: for percentage of culture infected: day 8 after transfection
Protocol: (§1) Culturing of Huh7.5 cells was done as described by Gottwein et al. 2007. One day prior to transfection or infection, naïve Huh7.5 cells were plated at 4×10^5/well in 6-well plates. In vitro transcription was carried out for 2 hours with T7 RNA polymerase (Promega) on 5 μg plasmid linearized with XbaI and treated with Mung Bean Nuclease (New England Biolabs, Beverly, Mass., USA) to yield the exact HCV 3′ end. For transfection, 2.5 μg of unpurified RNA transcripts were incubated with 5 μL Lipofectamine2000™ (Invitrogen) in 500 μL Opti-MEM (Invitrogen) for 20 min at room temperature. RNA-Lipofectamine2000™ transfection complexes were left on cells for 16-24 hours before washing. For infection, virus-containing supernatant was left on cells for 6-24 hours. Supernatants collected during experiments were sterile filtered and stored at −80° C.
(§2) Anti-Core immunostaining was done with mouse anti-HCV Core protein monoclonal antibody (B2) (Anogen Mississauga, Ontario, Canada) as primary antibody and Alexa Fluor 594 goat anti-mouse IgG (H+L) (Invitrogen) as secondary antibody. HCV RNA titers were determined by a TaqMan™ real-time PCR assay. Infectivity titers were determined as follows: 6×10^3 naïve Huh7.5 cells were plated per well in a poly-D-lysine coated 96-well plate (Nunc) one day before inoculation with three replicates of individual 10-fold dilutions of cell culture supernatants. Inocula were left on cells for 48 hours and cells were fixed using ice could methanol. After washing, blocking buffer (1% BSA, 0.2% skim milk) was added for 20 min and endogenous peroxidases were inhibited by application of H2O2 for 5 min. Primary antibody (anti-NS3, clone H26, Abcam, Cambridge, UK) diluted 1:1000 was left on cells for 3-4 days. Secondary antibody was ECL anti-mouse IgG HRP-linked whole antibody (GE Healthcare Amersham, Brondby, Denmark). Staining was developed using DAB substrate kit (DAKO, Glostrup, Denmark). The number of focus-forming units (FFU) per well were counted manually (dilutions with 5-100 FFU counted) or automatically. Automatic counting was performed on an ImmunoSpot Series 5 UV Analyzer™ (CTL Europe GmbH, Aalen, Baden-Württemberg, DE) with customized software. From FFU counts in experimental wells, the mean of spot counts of negative control wells was subtracted (typically around 5 spots).

[2] = tested on: Huh7.5 cells; experiment: HCV RNA titers by TaqMan real-time PCR; format: cell-based; conditions: for 1st passage Log(IU/mL): Table 1b, maximum HCV RNA titer, two values separated by slash = two independent passages
Protocol: (§3) To determine the efficiency of the developed system, HCV RNA titers are determined in IU/ml (international units/ml) with Taq-Man Real-Time-PCR and infectious titers are determined with a focus-forming units (FFU) method: in this method, infectivity titers are determined by infection of cell culture replicates with serial dilutions of virus containing supernatants and, following immuno-stainings for HCV antigens, counting of HCV-antigen positive cell foci. Alternatively the infectious titers are determined as 50% tissue culture infectious dose.
as §2

[3] = tested on: Huh7.5 cells; experiment: Infectivity titers (FFU) in supernatant after RNA transfection or viral passage; format: cell-based; conditions: for 1st passage Log(FFU/mL): maximum infectivity titer, two values separated by slash = two independent passages; for Peak titers Transfection Log (FFUs/mL) / Peak titers Viral passage Log (FFUs/mL): Table 2; for Peak titers Transfection Log (FFUs/mL): maximum infectivity titer observed in transfection experiments; for Peak titers Viral passage Log (FFUs/mL): maximum infectivity titer observed in viral passage experiments
Protocol: as §3, §1, §2

[4] = tested on: Huh7.5 cells; experiment: Genetic stability, direct sequencing of complete ORF after passage; conditions: Table 2; ORF sequenced after passage to naïve cells
Protocol: RNA was extracted from cell culture supernatant using (Highly Pure Viral Nucleic Acid Kit™, Roche, Mannheim, Del.). RT-PCR was done using SuperScriptIII™ (Invitrogen, Carlsbad, Calif., USA). In 1st round PCR the Advantage 2 PCR Enzyme System was used. Cycle parameters were 35 s at 99° C., 30 s at 67° C. and 10 min (cycle 1-5), 11 min (cycle 6-15), 12 min (cycle 16-25) or 13 min (cycle 26-35) at 68° C. 12˜1 kb products were synthesized in overlapping nested PCRs covering the entire ORF using primer pairs as previously described. Primer pairs 8, 9 and 10 were modified to the genotype specific NS5A sequence (Table 20, SEQ ID NO 163-192). Cycle parameters were 35 s at 99° C. followed by 35 cycles with 35 s at 99° C., 30 s at 67° C. and 6 min at 68° C.
All sequence reactions were performed at Macrogen Inc., Seoul, South Korea. Sequence analysis was performed with Sequencher™ (Gene Codes Corporation) Vector NTI 11 (Invitrogen) and BioEdit™ (Tom Hall, Ibis Therapeutics). HCV sequences were retrieved from the European HCV database (euHCVdb; at the http: internet location //euhcvdb.ibcp.fr/euHCVdb/) and the Los Alamos HCV sequence database (LANL; at the http: Internet location //hcv.lanl.gov/content/hcv-db/index).
Genetic stability of NS5A recombinants after passage to naïve cells. Supernatant samples from transfection culture were passaged to naïve Huh7.5 cells and the complete ORF was sequenced after spread of infection in culture to check for further need of adaptation.

[5] = tested on: HK6a(6a) NS5A recombinant; experiment: IFN-alpha 2b treatment of infected cultures; format: cell-based, hepatitis C virus; conditions: genotype 6a, isolate HK6a NS5A recombinant
Protocol: (§4) Huh7.5 cells were infected with J6/JFH1 with NS5A of the indicated isolate (or ISDR type). J6/JFH1 was included with two infectious doses to control for impact of dose variability. The infectious dose of other recombinants was in the range between. […] On day three cells were fixed and immunostained for NS3 expression. The number of single infected cells was determined by automated counting of individual wells. Values are shown as percentage infected cells compared to the average for non-treated controls of the given recombinant. Data were fitted to a sigmoidal dose-response curve with the equation Y=1/(1+10^((Log(EC50)−Log(IU/mL))*HillSlope)), where Y is the response in %.
(§5) 5×10^3 naïve Huh7.5 cells were plated per well in a poly-D-lysine coated 96-well plate (Nunc, Roskilde, D K) one day before infection with different recombinant viruses. Infectious doses were chosen to aim at 400-1000 single infected cells in non-treated wells at the end of the experiment. J6/JFH1 was included with two infectious doses (high and low) to control for impact of dose variability. The infectious dose of other recombinants was in the range between. […] On day three cells were fixed and immunostained for NS3 expression as described above. In parallel, cell viability was monitored with CellTiter™ 96 AQueous One Solution Cell Proliferation Assay (Promega, Madison, Wis. USA). The number of single infected cells was determined by automated counting of individual wells as described above.
(§6) On day three cells were fixed and immunostained for NS3 expression. The number of single infected cells was determined by automated counting (FIG. 15).

[6] = tested on: H77C(1a) NS5A recombinant; experiment: IFN-alpha 2b treatment of infected cultures; format: cell-based, hepatitis C virus; conditions: genotype 1a, isolate H77C NS5A recombinant
Protocol: as §4, §5, §6

[7] = tested on: J4(1b) NS5A ISDR mutant recombinant; experiment: IFN-alpha 2b treatment of infected cultures; format: cell-based, hepatitis C virus; conditions: genotype 1b, isolate J4 NS5A
Protocol: as §4, §5, §6

[8] = tested on: ED43(4a) NS5A recombinant; experiment: IFN-alpha 2b treatment of infected cultures; format: cell-based, hepatitis C virus; conditions: genotype 4a, isolate ED43 NS5A recombinant
Protocol: as §4, §5, §6

[9] = tested on: JFH1(2a) NS5A (J6/JFH1); experiment: IFN-alpha 2b treatment of infected cultures; format: cell-based, hepatitis C virus; conditions: genotype 2a, isolate JFH1 NS5A (J6/JFH1)
Protocol: as §4, §5, §6

[10] = tested on: J6(2a) NS5A recombinant; experiment: IFN-alpha 2b treatment of infected cultures; format: cell-based, hepatitis C virus; conditions: genotype 2a, isolate J6 NS5A recombinant
Protocol: as §4, §5, §6

[11] = tested on: QC69(7a) NS5A recombinant; experiment: IFN-alpha 2b treatment of infected cultures; format: cell-based, hepatitis C virus; conditions: genotype 7a, isolate QC69 NS5A recombinant
Protocol: as §4, §5, §6

[12] = tested on: S52(3a) NS5A recombinant; experiment: IFN-alpha 2b treatment of infected cultures; format: cell-based, hepatitis C virus; conditions: genotype 3a, isolate S52 NS5A recombinant
Protocol: as §4, §5, §6

[13] = tested on: SA13(5a) NS5A recombinant; experiment: IFN-alpha 2b treatment of infected cultures; format: cell-based, hepatitis C virus; conditions: genotype 5a, isolate SA13 NS5A recombinant
Protocol: as §4, §5, §6

[14] = tested on: TN(1a) NS5A recombinant; experiment: IFN-alpha 2b treatment of infected cultures; format: cell-based, hepatitis C virus; conditions: genotype 1a, isolate TN NS5A recombinant
Protocol: as §4, §5, §6

[15] = tested on: J4(1b) NS5A recombinant; experiment: IFN-alpha 2b treatment of infected cultures; format: cell-based, hepatitis C virus; conditions: genotype 1b, isolate J4 NS5A recombinant
Protocol: as §4, §5, §6

ED43/JFH1(ED43-NS5A): ED43 Core-NS2/NS5A recombinant without mutations adaptive for ED43/JFH1, SEQ ID NO 51
spread / replication in culture ([1]; after transfection into Huh7.5 cells): never spread in culture

ED43/JFH12819,3269(ED43-NS5A)5270/7131: ED43 Core-NS2/NS5A recombinant with T5270C/A7131G, SEQ ID NO 193
spread in culture / to the majority of culture, day after transfection ([1]; Huh7.5 cells, after transfection of RNA transcripts): 17 days
percentage of culture infected [1]: 30%

ED43/JFH12819, 3269(ED43-NS5A): JFH1-based recombinant with Core-NS2 and NS5A of genotype 4a ED43, SEQ ID NO 52
percentage of culture infected [1]: 1%
1st passage Log(IU/mL) [2]: 7.1 Log(IU/mL)
Peak titers Viral passage Log (IU/mL) ([2]; Table 2, maximum HCV RNA titer in all passage samples analyzed): 7.1 Log (IU/mL)
1st passage Log(FFU/mL) ([3]; Table 1b): 1.8 Log(FFU/mL)
Peak titers Transfection Log (FFUs/mL) [3]: 2.0 Log (FFUs/mL)
Peak titers Viral passage Log (FFUs/mL) [3]: 1.8 Log (FFUs/mL)
Genetically stable [4]: No

HK6a/JFH11389, 1590(HK6a-NS5A)7161: HK6a Core-NS2/NS5A recombinant with T7161A, SEQ ID NO 57
Transfection Log(FFU/mL) ([3]; Table 1b, maximum infectivity titer after transfection, Core-NS2 and NS5A of same genotype): 2.7 Log(FFU/mL)
1st passage Log(FFU/mL) ([3]; Table 1b): 3.3 Log(FFU/mL)
Peak titers Transfection Log (FFUs/mL) [3]: 2.7 Log (FFUs/mL)
Peak titers Viral passage Log (FFUs/mL) [3]: 3.3 Log (FFUs/mL)

HK6a/JFH11389, 1590(HK6a-NS5A): JFH1-based recombinant with Core-NS2 and NS5A of genotype 6a HK6a, SEQ ID NO 56
1st passage Log(IU/mL) [2]: 7.0 Log(IU/mL)

IFN-α
IFN-α, EC50 (IU/mL), original [5]: 0.21 IU/mL
IFN-α, EC50 (IU/mL), original [6]: 0.25 IU/mL
IFN-α, EC50 (IU/mL), 'Sensitive-type' ISDR mutant [7]: 0.12 IU/mL
IFN-α, EC50 (IU/mL), original [8]: 0.15 IU/mL
IFN-α, EC50 (IU/mL), original [9]: 0.25 IU/mL
IFN-α, EC50 (IU/mL), original [10]: 0.12 IU/mL
IFN-α, EC50 (IU/mL), original [11]: 0.18 IU/mL
IFN-α, EC50 (IU/mL), original [12]: 0.27 IU/mL
IFN-α, EC50 (IU/mL), original [13]: 0.32 IU/mL
IFN-α, EC50 (IU/mL), original [14]: 0.28 IU/mL
IFN-α, EC50 (IU/mL), original [15]: 0.12 IU/mL
